The NIST ThermoML archive (doi:10.1016/j.fluid.2006.08.004)
± gives the expanded uncertainty stated by the source.

Legend:
[1] = refractive index (Na D-line) (dimensionless); conditions: 298.15 K; 101.33 kPa; Liquid; Standard Abbe refractometry
[2] = Liquid; for mass density: 298.15 K, 101.33 kPa; for Normal boiling temperature: Ebulliometric method (Recirculating still)

Row | refractive index [1] | mass density [2] [kg/m3] | Normal boiling temperature [2] [°C] | Compound
1 | 1.38887 ± 0.00068 | 687.72 ± 0.65 | 99.18 ± 0.01 | CC(C)CC(C)(C)C [2,2,4-trimethylpentane]
2 | 1.35926 ± 0.00068 | 785.09 ± 0.25 | 78.29 ± 0.01 | CCO [ethanol]
3 | 1.36512 ± 0.0007 | 718.37 ± 1.2 | 68.38 ± 0.1 | CC(C)OC(C)C [diisopropyl ether]
